Assay results taken from US10195156B2, “Compounds and compositions for intracellular delivery of agents” (ModernaTX, Inc., priority 2015, dated 2019).
“Also recorded” adds a separate entry of the source.

Tests used:
[1] = system: hEPO mRNA expression; test: Expression of hEPO in rats after intravenous administration; format: in vivo; details: for hEPO (pg/mL) 3 hours / hEPO (pg/mL) 6 hours / hEPO (pg/mL) 24 hours: Table 6, 0.2 mg/kg or 0.5 mg/kg; for Lipid/MC3 hEPO S.D. (rats): hEPO expression relative to MC3, S.D. rats, intravenous
Procedure: PBS (phosphate buffered saline) is used as control.
Formulations were prepared according to Table 5 and included mRNA encoding hEPO.
[…] After the 48 hour time point, livers and spleens were harvested and frozen.

[2] = system: IL-6; test: Cytokine production induced by sample formulations: IL-6; format: in vivo; details: mice, i.v., 0.5 mpk, 6 hours; for IL-6: in pg/mL (unit assumed)
In short: (§1)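 Mice received nanoparticle formulations intravenously at 0.5 mpk, with standard MC3 formulation and PBS as controls. Cytokine concentrations were measured 6 hours after dosing.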

[3] = Concentration of RNA in nanoparticle composition (ultraviolet-visible spectroscopy); format: physicochemical; details: Table 5, hEPO mRNA
Procedure: Ultraviolet-visible spectroscopy can be used to determine the concentration of a therapeutic and/or prophylactic agent (e.g., RNA) in nanoparticle compositions. 100 μL of the diluted formulation in 1×PBS is added to 900 μL of a 4:1 (v/v) mixture of methanol and chloroform. After mixing, the absorbance spectrum of the solution is recorded, for example, between 230 nm and 330 nm on a DU 800 spectrophotometer (Beckman Coulter, Beckman Coulter, Inc., Brea, Calif.). The concentration of therapeutic and/or prophylactic agent in the nanoparticle composition can be calculated based on the extinction coefficient of the therapeutic and/or prophylactic agent used in the composition and on the difference between the absorbance at a wavelength of, for example, 260 nm and the baseline value at a wavelength of, for example, 330 nm.

[4] = system: IP-10; test: Cytokine production induced by sample formulations: IP-10; format: in vivo; details: mice, i.v., 0.5 mpk, 6 hours; for IP-10: in pg/mL (unit assumed)
In short: as §1

[5] = system: modified luciferase expression; test: Expression of Luc in different organs (liver, lung, spleen, femur) 6 hours after intravenous administration; format: in vivo; details: i.v., 0.5 mpk
Procedure: The efficacy of the nanoparticle compositions presented in Tables 1, 1a, 17-1, 19-1, 20-1 and 21-1 was further evaluated by measuring the expression of modified luciferase in the liver, lung, spleen, and femur upon administration of a given composition. Formulations were administered intravenously to mice (n=3) at a dosage of 0.5 mpk and bioluminescence measured after 6 hours. The standard MC3 formulation and a PBS control were also tested.

[6] = system: Luc expression; test: ApoE dependence of luciferase expression (ApoE knockout vs. wild-type mice); format: in vivo; details: 0.5 mpk, 6 h
From the text: FIG. 17 is a pair of graphs showing the ApoE dependence of luciferase (“Luc”) expression following administration of a composition containing Luc mRNA and Compound 4 to mice at a dose 0.5 mpk. The expression following administration of a composition containing Luc mRNA and MC3 is presented for comparison. […] The % change in Luc expression in livers of ApoE knockout vs. wild-type mice (i.e., (WT mean expression-KO mean expression)/WT mean expression]*100%) was 91.9% for Compound 4 and 97.5% for MC3. […] The % change in expression in spleens of ApoE knockout vs. wild-type mice was 4.34% for Compound 4 and 72.2% for MC3. Numbers 1-4 refer to the following: 1: Composition containing Compound 4, administered to ApoE knockout mice; 2: Composition containing Compound 4, administered to wild-type mice; 3: Composition containing MC3, administered to ApoE knockout mice; 4: Composition containing MC3, administered to wild-type mice.

[7] = system: Luc expression; test: Luc expression in CD-1 mice (AUC relative to MC3); format: in vivo; details: Table 7c
Procedure: FIG. 15 is a graph summarizing luciferase expression levels at 6 h after administration of nanoparticle compositions containing compounds of the disclosure to CD-1 mice at a dose of 0.5 mpk. Total light flux values were acquired via body luminescent imaging (BLI) 6 h after administration. In this Figure, the numbers 1-7 and 10 refer to the compositions containing Compounds 4-10 and MC3 respectively.
(§2) In contrast, hEPO expression in rats induced by administration of a nanoparticle composition including a compound according to one of formulae (I), (Ia1)-(Ia6), (Ib), (II), (IIa), (III), and (IIIa) was substantially […] than that measured for MC3. […] Table 7c and 7d show additional protein expressions and clearance data from compositions with various compounds disclosed herein as compared to with MC3.

[8] = Lipid clearance: % dose remaining in mouse liver 6 h and 24 h after administration of nanoparticle compositions; format: in vivo, CD-1 mice
From the text: as §2

[9] = system: GFP expression in liver cells; test: Mouse liver immunohistochemistry (IHC) with GFP mRNA; format: in vivo; details: FIG. 11, i.v., 0.5 mpk, 6 h (MC3, CD-1) or 8 h (Compound 4, LDLR knockout)
Procedure: FIG. 11 is a pair of images comparing the results of a mouse liver immunohistochemistry (IHC) using mRNA expressing green fluorescent protein (GFP) after administration of nanoparticle compositions containing Compound 4 and MC3.
FIG. 16 is a graph showing GFP levels in the livers of LDLR knockout mice at 30 min to 24 h after intravenous administration of an eGFP RNA in a lipid composition containing Compound 4. The liver GFP levels were determined via IHC. The square markers represent the number of GFP positive cells following administration of a dose of 0.1 mpk of the composition. The circular markers represent the number of GFP positive cells following administration of a dose of 0.5 mpk of the composition.

[10] = system: LDL-c; test: LDL levels in LDLr−/− mice after mRNA encoding the LDL receptor; format: in vivo, LDLR knockout mice; details: Mus musculus; Table 7b; LDLr−/− mice, 0.5 mpk, LDLr; read-out: LDL levels lipid/untreated LDLr−/− mice 0.5 mpk, LDLr

## CCCCCCCCCCCCN(CCCCCCCCCCCC)CCN(CCCCCCCCCCCC)CCN1CCN(CCN(CCCCCCCCCCCC)CCCCCC(=O)OCCCCC)CC1 [Compound 12, Pentyl 6-((2-(4-(2-((2-(didodecylamino)ethyl)(dodecyl)amino)ethyl)piperazin-1-yl)ethyl)(dodecyl)amino)hexanoate]
[1]; rats, i.v.
  hEPO (pg/mL) 3 hours: 592260 pg/mL
  hEPO (pg/mL) 6 hours: 424740 pg/mL
  hEPO (pg/mL) 24 hours: 165404 pg/mL
[1]
  Lipid/MC3 hEPO S.D. (rats): 0.32
[2]; Table 4
  IL-6: 31
[3]; 40:20:38.5:1.5 Lipid:DOPE:Chol:PEG-DMG
  Conc.: 320.14 µg/mL
[4]; Table 4
  IP-10: 2382
[5]; Table 3, mice, liver
  Total Flux Liver: 1.05E+09
[5]; Table 3, mice
  Total Flux Lung: 6.76E+06
  Total Flux Spleen: 1.11E+07

## CCCCCC=CCC=CCCCCCCCCC(CCCCCCCCC=CCC=CCCCCC)OC(=O)CCCN(C)C (stereo not shown) [MC3, heptatriaconta-6,9,28,31-tetraen-19-yl 4-(dimethylamino)butanoate, reference compound]
[6]; FIG. 17 Graph A, liver
  % change in Luc expression in livers of ApoE knockout vs. wild-type mice: 97.5%
[6]; FIG. 17 Graph B, spleen
  % change in expression in spleens of ApoE knockout vs. wild-type mice: 72.2%
[1]; rats, i.v.
  hEPO (pg/mL) 3 hours: 1407947 pg/mL
  hEPO (pg/mL) 6 hours: 1036013 pg/mL
  hEPO (pg/mL) 24 hours: 436243 pg/mL
[1]; hEPO expression in S.D. rats, 0.1 mpk
  AUC (0.1 mpk): 1.62E+06
[1]; hEPO expression in S.D. rats, 1 mpk
  AUC (1 mpk): 1.17E+08
[1]
  Lipid/MC3 hEPO S.D. (rats): 1
[1]; rats, i.v., 0.2 or 0.5 mg/kg, Tables 6, 7a
  hEPO expression in rats, comparison (in words): highest hEPO expression at each time point
[7]
  AUC (p/s*h): 1.42E+11 p/s*h
[2]; Table 4
  IL-6: 92
[2]; Table 17-4
  IL-6: 107
[2]; Table 19-4
  IL-6: 65.7
[2]; Table 20-4, formula (20-I)
  IL-6: 119.5
[2]
  IL-6 induction, rank within the named table (in words): highest IL-6 and IP-10 levels
[3]; 50:10:38.5:1.5 Lipid:DSPC:Chol:PEG-DMG
  Conc.: 470.45 µg/mL
[8]; 6 h, CD-1 mice
  % Dose remaining 6 h CD-1 mice: 88%
[8]; 24 h, CD-1 mice
  % Dose remaining 24 h CD-1 mice: 55%
[8]; Table 7c, 6 hr
  % Dose Remaining 6 hr: 55.70%
[8]; Table 7c, 24 hr
  % Dose Remaining 24 hr: 55.43%
[8]; mouse liver, 24 h
  % dose remaining Mouse liver (24 h): 55%
[9]
  GFP protein expression in liver cell types (in words): observed in both hepatocytes and Kupffer cells
[10]
  response vs control in vivo at 0.5 mg/kg: 55%
[4]; Table 4
  IP-10: 438
[4]; Table 17-4
  IP-10: 500
[4]; Table 19-4
  IP-10: 323.9
[4]; Table 20-4, formula (20-I)
  IP-10: 499.1
[4]
  IP-10 induction, rank or comparison with IL-6 (in words): highest IL-6 and IP-10 levels
[5]; Table 3, mice
  Total Flux Femur: 3.08E+06
  Total Flux Lung: 8.61E+06
  Total Flux Spleen: 1.95E+07
[5]; Table 3, mice, liver
  Total Flux Liver: 2.31E+09
[5]; Table 17-3, mice
  Total Flux Femur: 6.03E+06
  Total Flux Lung: 7.25E+06
  Total Flux Spleen: 2.62E+07
[5]; Table 17-3, mice, liver
  Total Flux Liver: 2.75E+09
[5]; Table 19-3, mice, liver
  Total Flux Liver: 2.39E+09
[5]; Table 19-3, mice
  Total Flux Lung: 5.83E+06
  Total Flux Spleen: 2.45E+07
[5]; Table 20-3, mice
  Total Flux Femur: 2.60E+06
  Total Flux Lung: 1.28E+07
  Total Flux Spleen: 2.85E+07
[5]; Table 20-3, mice, liver
  Total Flux Liver: 2.48E+09
[5]; Table 21-3, mice, liver
  Total Flux Liver: 3.05E+09
[5]; Table 21-3, mice
  Total Flux Lung: 6.60E+06
  Total Flux Spleen: 4.73E+07
[5]; mice, each organ or overall, 0.5 mg/kg
  total flux in organs, rank or organ comparison (in words): highest total flux; also recorded: highest expression in each organ
[5]; mice, liver
  total flux in the liver, rank within the named table (in words): highest
